# Test results: US7135572B2 (CJ Corp, priority 2001, dated 2006)
# Legend:
# cyclooxygenase-1 = target: T1, cyclooxygenase-1 (Homo sapiens, UniProt P23219); test: Inhibition of cyclooxygenase-1 in U-937 cells (PGE2 quantitation); format: cell-based; conditions: U-937 cells
# T1 construct: The cultured U-937 (humane lymphoma cell, obtained from Korean cell line bank) was centrifuged to collect the pellet; endogenous in cells; host or cells: U-937 (human lymphoma cell line, Korean cell line bank)
# Description: (§1) In order to investigate pharmacologically the selective inhibition activity against cyclooxygenase-2 enzyme, the inhibitive effects against cyclooxygenase-1 and cyclooxygenase-2 were measured by two methods as follows.
# Then, the pellet was diluted with 1×HBSS(Hank's balanced salt solutin) at the concentration of 1×10^6 cells/ml, and 1 ml of them was transferred into each well of 12-well plates, and then dissolved with DMSO. 5μl of the diluted sample solution, and 5μl of DMSO vehicle were added therein and mixed, and the mixture was cultured at 37° C. in Co2 incubator for 15 minutes. Arachidonic acid as a substrate was dissolved in ethanol to prepare a stock solution with a concentration of 10 mM, followed by diluting with 1×HBSS to prepare the solution of 1 mM. 10 μl of 1 mM Arachidonic acid solution was added to each of the treated wells, and the mixture was cultured at 37° C. in CO2 incubator for 30 minutes. The cell solution of each well was collected in the centrifuge tube and was centrifuged at 4° C. for 5 minutes at 10,000 rpm. As PGE2 existed in the supernatant separated from collected cell, the concentration of PGE2 was quantitated by using monoclonal kit from Cayman Chemicals, and the concentration of samples and vehicle were compared to estimate the inhibition ratio (%) of each compound against cyclooxygenase-1. Ultimately, the inhibition effect against the cyclooxygenase-1 enzyme was obtained from the result.
# cyclooxygenase-2 = target: T2, cyclooxygenase-2 (Mus musculus, UniProt Q05769); test: Inhibition of cyclooxygenase-2 in Raw 264.7 cells treated with interferon γ and LPS (PGE2 EIA); format: cell-based; conditions: for Inhibitory effects of cyclooxygenase (COX): COX-2: Raw 264.7 cells; for selectivity of cyclooxygenase-2 compared with the comparative substance (in words): COX-2 versus COX-1
# T2 construct: endogenous in cells; host or cells: Raw 264.7 (Korean cell line bank), aspirin-pretreated, induced with interferon gamma and LPS
# T2 sequence (Q05769 18-604): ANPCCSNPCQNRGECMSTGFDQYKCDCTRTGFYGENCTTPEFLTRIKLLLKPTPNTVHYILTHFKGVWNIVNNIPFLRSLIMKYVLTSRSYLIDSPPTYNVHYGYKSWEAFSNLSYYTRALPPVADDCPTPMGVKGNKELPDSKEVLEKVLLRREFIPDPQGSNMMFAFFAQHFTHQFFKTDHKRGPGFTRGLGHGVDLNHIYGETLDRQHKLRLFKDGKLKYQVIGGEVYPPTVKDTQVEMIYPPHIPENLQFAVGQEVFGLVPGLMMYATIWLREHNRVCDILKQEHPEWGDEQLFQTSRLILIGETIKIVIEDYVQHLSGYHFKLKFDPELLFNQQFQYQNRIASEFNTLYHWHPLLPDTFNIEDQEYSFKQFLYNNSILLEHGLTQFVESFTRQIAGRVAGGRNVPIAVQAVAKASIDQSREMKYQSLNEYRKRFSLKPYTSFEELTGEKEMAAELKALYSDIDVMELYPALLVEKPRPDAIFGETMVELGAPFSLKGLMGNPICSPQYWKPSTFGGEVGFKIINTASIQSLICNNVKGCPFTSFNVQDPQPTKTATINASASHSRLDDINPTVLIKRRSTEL
# Description: as §1
# And then, each samples were replaced with new media and cultured for 30 minutes. In addition, the samples was treated with 100 units/ml of interferon Υ and 100 ng/ml of lipopolysaccharide(LPS), and cultured for 18 hours. Then, the media was transferred to other tubes and the PGE 2 was quantitated by using EIA kit from Cayman Chemicals.
# T1 sequence (P23219 24-599): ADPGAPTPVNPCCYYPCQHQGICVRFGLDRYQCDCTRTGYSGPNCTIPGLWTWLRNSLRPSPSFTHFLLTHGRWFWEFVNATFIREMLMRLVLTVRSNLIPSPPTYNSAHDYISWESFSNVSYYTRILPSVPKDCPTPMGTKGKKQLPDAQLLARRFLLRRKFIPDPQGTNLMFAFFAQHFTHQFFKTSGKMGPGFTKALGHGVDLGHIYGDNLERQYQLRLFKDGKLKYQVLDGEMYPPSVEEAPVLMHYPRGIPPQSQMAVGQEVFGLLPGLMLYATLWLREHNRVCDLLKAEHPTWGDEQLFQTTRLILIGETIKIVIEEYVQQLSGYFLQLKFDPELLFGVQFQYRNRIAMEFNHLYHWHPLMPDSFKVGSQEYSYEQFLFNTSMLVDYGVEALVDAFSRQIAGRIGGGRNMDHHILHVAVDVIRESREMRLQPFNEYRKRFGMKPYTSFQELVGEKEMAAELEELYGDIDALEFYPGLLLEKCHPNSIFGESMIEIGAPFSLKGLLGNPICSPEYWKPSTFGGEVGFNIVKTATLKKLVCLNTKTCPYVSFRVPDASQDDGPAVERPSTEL
smiles,measurement,setting,value
"COc1cc(OC)cc(-c2nc(C)nn2-c2ccc(S(N)(=O)=O)cn2)c1 [Example 22, 6-[5-(3,5-dimethoxy-phenyl)-3-methyl-[1,2,4]triazole-1-yl]-pyridine-3-sulfonic acid amide]",Inhibitory effects of cyclooxygenase (COX): COX-1,cyclooxygenase-1; 3 μM,15.1 % inhibition
same,Inhibitory effects of cyclooxygenase (COX): COX-1,cyclooxygenase-1; 10 μM,26.8 % inhibition
same,Inhibitory effects of cyclooxygenase (COX): COX-1,cyclooxygenase-1; 30 μM,31.1 % inhibition
same,Inhibitory effects of cyclooxygenase (COX): COX-2,cyclooxygenase-2; 30 nM,27.3 % inhibition
same,Inhibitory effects of cyclooxygenase (COX): COX-2,cyclooxygenase-2; 100 nM,29.8 % inhibition
same,Inhibitory effects of cyclooxygenase (COX): COX-2,cyclooxygenase-2; 300 nM,36.2 % inhibition
"Cc1nc(-c2ccc(F)cc2)n(-c2ccc(S(N)(=O)=O)cc2)n1 [Example 2, 4-[5-(4-fluoro-phenyl)-3-methyl-[1,2,4]triazole-1-yl]-benzenesulfonamide]",Inhibitory effects of cyclooxygenase (COX): COX-1,cyclooxygenase-1; 3 μM,36.9 % inhibition
same,Inhibitory effects of cyclooxygenase (COX): COX-1,cyclooxygenase-1; 10 μM,53.4 % inhibition
same,Inhibitory effects of cyclooxygenase (COX): COX-1,cyclooxygenase-1; 30 μM,67.8 % inhibition
same,Inhibitory effects of cyclooxygenase (COX): COX-2,cyclooxygenase-2; 30 nM,28.8 % inhibition
same,Inhibitory effects of cyclooxygenase (COX): COX-2,cyclooxygenase-2; 100 nM,34.4 % inhibition
same,Inhibitory effects of cyclooxygenase (COX): COX-2,cyclooxygenase-2; 300 nM,45.7 % inhibition
"Cc1nc(-c2ccc(Cl)cc2)n(-c2ccc(S(N)(=O)=O)cc2)n1 [Example 3, 4-[5-(4-chloro-phenyl)-3-methyl-[1,2,4]triazole-1-yl]-benzenesulfonamide]",Inhibitory effects of cyclooxygenase (COX): COX-1,cyclooxygenase-1; 3 μM,0.1 % inhibition
same,Inhibitory effects of cyclooxygenase (COX): COX-1,cyclooxygenase-1; 10 μM,13.8 % inhibition
same,Inhibitory effects of cyclooxygenase (COX): COX-1,cyclooxygenase-1; 30 μM,29.7 % inhibition
same,Inhibitory effects of cyclooxygenase (COX): COX-2,cyclooxygenase-2; 30 nM,40.0 % inhibition
same,Inhibitory effects of cyclooxygenase (COX): COX-2,cyclooxygenase-2; 100 nM,74.1 % inhibition
same,Inhibitory effects of cyclooxygenase (COX): COX-2,cyclooxygenase-2; 300 nM,82.9 % inhibition
"Cc1nc(-c2cccc(F)c2)n(-c2ccc(S(N)(=O)=O)cn2)n1 [Example 20, 6-[5-(3-fluoro-phenyl)-3-mehtyl-[1,2,4]triazole-1-yl]-pyridine-3-sulfonic acid amide]",Inhibitory effects of cyclooxygenase (COX): COX-1,cyclooxygenase-1; 3 μM,27.2 % inhibition
same,Inhibitory effects of cyclooxygenase (COX): COX-1,cyclooxygenase-1; 10 μM,31.6 % inhibition
same,Inhibitory effects of cyclooxygenase (COX): COX-1,cyclooxygenase-1; 30 μM,34.7 % inhibition
same,Inhibitory effects of cyclooxygenase (COX): COX-2,cyclooxygenase-2; 30 nM,30.2 % inhibition
same,Inhibitory effects of cyclooxygenase (COX): COX-2,cyclooxygenase-2; 100 nM,57.8 % inhibition
same,Inhibitory effects of cyclooxygenase (COX): COX-2,cyclooxygenase-2; 300 nM,74.0 % inhibition
"Cc1nc(-c2cccc(Cl)c2)n(-c2ccc(S(N)(=O)=O)cn2)n1 [Example 21, 6-[5-(3-chloro-phenyl)-3-methyl-[1,2,4]triazole-1-yl]-pyridine-3-sulfonic acid amide]",Inhibitory effects of cyclooxygenase (COX): COX-1,cyclooxygenase-1; 3 μM,44.7 % inhibition
same,Inhibitory effects of cyclooxygenase (COX): COX-1,cyclooxygenase-1; 10 μM,56.7 % inhibition
same,Inhibitory effects of cyclooxygenase (COX): COX-1,cyclooxygenase-1; 30 μM,75.6 % inhibition
same,Inhibitory effects of cyclooxygenase (COX): COX-2,cyclooxygenase-2; 30 nM,43.9 % inhibition
same,Inhibitory effects of cyclooxygenase (COX): COX-2,cyclooxygenase-2; 100 nM,48.8 % inhibition
same,Inhibitory effects of cyclooxygenase (COX): COX-2,cyclooxygenase-2; 300 nM,67.8 % inhibition
"Cc1nc(-c2ccc(Cl)cc2)n(-c2ccc(S(C)(=O)=O)cc2)n1 [Example 28, 5-(4-chloro-phenyl)-1-(4-methanesulfonyl-phenyl)-3-methyl-1H-[1,2,4]triazole]",Inhibitory effects of cyclooxygenase (COX): COX-1,cyclooxygenase-1; 3 μM,72.9 % inhibition
same,Inhibitory effects of cyclooxygenase (COX): COX-1,cyclooxygenase-1; 10 μM,73.1 % inhibition
same,Inhibitory effects of cyclooxygenase (COX): COX-1,cyclooxygenase-1; 30 μM,85.4 % inhibition
same,Inhibitory effects of cyclooxygenase (COX): COX-2,cyclooxygenase-2; 30 nM,33.9 % inhibition
same,Inhibitory effects of cyclooxygenase (COX): COX-2,cyclooxygenase-2; 100 nM,38.8 % inhibition
same,Inhibitory effects of cyclooxygenase (COX): COX-2,cyclooxygenase-2; 300 nM,57.8 % inhibition
"Cc1nc(-c2ccc(Br)cc2)n(-c2ccc(S(N)(=O)=O)cc2)n1 [Example 4, 4-[5-(4-bromo-phenyl)-3-methyl-[1,2,4]triazole-1-yl]-benzenesulfonamide]",Inhibitory effects of cyclooxygenase (COX): COX-1,cyclooxygenase-1; 3 μM,85.6 % inhibition
same,Inhibitory effects of cyclooxygenase (COX): COX-1,cyclooxygenase-1; 10 μM,87.7 % inhibition
same,Inhibitory effects of cyclooxygenase (COX): COX-1,cyclooxygenase-1; 30 μM,91.1 % inhibition
same,Inhibitory effects of cyclooxygenase (COX): COX-2,cyclooxygenase-2; 30 nM,64.2 % inhibition
same,Inhibitory effects of cyclooxygenase (COX): COX-2,cyclooxygenase-2; 100 nM,99.0 % inhibition
same,Inhibitory effects of cyclooxygenase (COX): COX-2,cyclooxygenase-2; 300 nM,99.8 % inhibition
same,selectivity of cyclooxygenase-2 compared with the comparative substance (in words),cyclooxygenase-2,hardly different
"COc1cc(OC)cc(-c2nc(C)nn2-c2ccc(S(N)(=O)=O)cc2)c1 [Example 13, 4-[5-(3,5-dimethoxy-phenyl)-3-methyl-[1,2,4]triazole-1-yl]-benzenesulfonamide]",Inhibitory effects of cyclooxygenase (COX): COX-1,cyclooxygenase-1; 3 μM,63.8 % inhibition
same,Inhibitory effects of cyclooxygenase (COX): COX-1,cyclooxygenase-1; 10 μM,65.9 % inhibition
same,Inhibitory effects of cyclooxygenase (COX): COX-1,cyclooxygenase-1; 30 μM,76.8 % inhibition
same,Inhibitory effects of cyclooxygenase (COX): COX-2,cyclooxygenase-2; 30 nM,37.9 % inhibition
same,Inhibitory effects of cyclooxygenase (COX): COX-2,cyclooxygenase-2; 100 nM,56.1 % inhibition
same,Inhibitory effects of cyclooxygenase (COX): COX-2,cyclooxygenase-2; 300 nM,59.3 % inhibition
"Cc1nc(-c2ccc(Br)cc2)n(-c2ccc(S(C)(=O)=O)cn2)n1 [Example 31, 2-[5-(4-bromo-phenyl)-3-methyl-[1,2,4]triazole-1-yl]-5-methanesulfonyl-pyridine]",Inhibitory effects of cyclooxygenase (COX): COX-1,cyclooxygenase-1; 3 μM,81.4 % inhibition
same,Inhibitory effects of cyclooxygenase (COX): COX-1,cyclooxygenase-1; 10 μM,82.0 % inhibition
same,Inhibitory effects of cyclooxygenase (COX): COX-1,cyclooxygenase-1; 30 μM,88.1 % inhibition
same,Inhibitory effects of cyclooxygenase (COX): COX-2,cyclooxygenase-2; 30 nM,69.5 % inhibition
same,Inhibitory effects of cyclooxygenase (COX): COX-2,cyclooxygenase-2; 100 nM,99.8 % inhibition
same,Inhibitory effects of cyclooxygenase (COX): COX-2,cyclooxygenase-2; 300 nM,99.9 % inhibition
same,selectivity of cyclooxygenase-2 compared with the comparative substance (in words),cyclooxygenase-2,hardly different
"COc1cccc(-c2nc(C)nn2-c2ccc(S(N)(=O)=O)cc2)c1 [Example 10, 4-[5-(3-methoxy-phenyl)-3-methyl-[1,2,4]triazole-1-yl]-benzenesulfonamide]",Inhibitory effects of cyclooxygenase (COX): COX-1,cyclooxygenase-1; 3 μM,38.8 % inhibition
same,Inhibitory effects of cyclooxygenase (COX): COX-1,cyclooxygenase-1; 10 μM,42.0 % inhibition
same,Inhibitory effects of cyclooxygenase (COX): COX-1,cyclooxygenase-1; 30 μM,45.6 % inhibition
same,Inhibitory effects of cyclooxygenase (COX): COX-2,cyclooxygenase-2; 30 nM,42.1 % inhibition
same,Inhibitory effects of cyclooxygenase (COX): COX-2,cyclooxygenase-2; 100 nM,54.2 % inhibition
same,Inhibitory effects of cyclooxygenase (COX): COX-2,cyclooxygenase-2; 300 nM,68.8 % inhibition
"Cc1nc(-c2ccc(Br)cc2)n(-c2ccc(S(C)(=O)=O)cc2)n1 [Example 30, 5-(4-bromo-phenyl)-1-(4-methanesulfonyl-phenyl)-3-methyl-1H-[1,2,4]triazole]",Inhibitory effects of cyclooxygenase (COX): COX-1,cyclooxygenase-1; 3 μM,77.6 % inhibition
same,Inhibitory effects of cyclooxygenase (COX): COX-1,cyclooxygenase-1; 10 μM,79.8 % inhibition
same,Inhibitory effects of cyclooxygenase (COX): COX-1,cyclooxygenase-1; 30 μM,82.1 % inhibition
same,Inhibitory effects of cyclooxygenase (COX): COX-2,cyclooxygenase-2; 30 nM,27.3 % inhibition
same,Inhibitory effects of cyclooxygenase (COX): COX-2,cyclooxygenase-2; 100 nM,29.8 % inhibition
same,Inhibitory effects of cyclooxygenase (COX): COX-2,cyclooxygenase-2; 300 nM,36.2 % inhibition
"Cc1nc(-c2ccccc2)n(-c2ccc(S(N)(=O)=O)cc2)n1 [Example 1, 4-(3-methyl-5-phenyl-[1,2,4]triazole-1-yl)-benzenesulfonamide]",Inhibitory effects of cyclooxygenase (COX): COX-1,cyclooxygenase-1; 3 μM,12.1 % inhibition
same,Inhibitory effects of cyclooxygenase (COX): COX-1,cyclooxygenase-1; 10 μM,25.9 % inhibition
same,Inhibitory effects of cyclooxygenase (COX): COX-1,cyclooxygenase-1; 30 μM,53.1 % inhibition
same,Inhibitory effects of cyclooxygenase (COX): COX-2,cyclooxygenase-2; 30 nM,48.5 % inhibition
same,Inhibitory effects of cyclooxygenase (COX): COX-2,cyclooxygenase-2; 100 nM,50.0 % inhibition
same,Inhibitory effects of cyclooxygenase (COX): COX-2,cyclooxygenase-2; 300 nM,81.4 % inhibition
"Cc1ccc(-c2nc(C)nn2-c2ccc(S(N)(=O)=O)cn2)cc1 [Example 18, 6-(3-methyl-5-p-toly-[1,2,4]triazole-1-yl)-pyridine-3-sulfonic acid amide]",Inhibitory effects of cyclooxygenase (COX): COX-1,cyclooxygenase-1; 3 μM,50.4 % inhibition
same,Inhibitory effects of cyclooxygenase (COX): COX-1,cyclooxygenase-1; 10 μM,62.9 % inhibition
same,Inhibitory effects of cyclooxygenase (COX): COX-1,cyclooxygenase-1; 30 μM,75.1 % inhibition
same,Inhibitory effects of cyclooxygenase (COX): COX-2,cyclooxygenase-2; 30 nM,26.4 % inhibition
same,Inhibitory effects of cyclooxygenase (COX): COX-2,cyclooxygenase-2; 100 nM,37.5 % inhibition
same,Inhibitory effects of cyclooxygenase (COX): COX-2,cyclooxygenase-2; 300 nM,46.5 % inhibition
"Cc1nc(-c2cccc(Cl)c2)n(-c2ccc(S(N)(=O)=O)cc2)n1 [Example 8, 4-[5-(3-chloro-phenyl)-3-methyl-[1,2,4]triazole-1-yl]-benzenesulfonamide]",Inhibitory effects of cyclooxygenase (COX): COX-1,cyclooxygenase-1; 3 μM,62.0 % inhibition
same,Inhibitory effects of cyclooxygenase (COX): COX-1,cyclooxygenase-1; 10 μM,75.1 % inhibition
same,Inhibitory effects of cyclooxygenase (COX): COX-1,cyclooxygenase-1; 30 μM,84.7 % inhibition
same,Inhibitory effects of cyclooxygenase (COX): COX-2,cyclooxygenase-2; 30 nM,31.3 % inhibition
same,Inhibitory effects of cyclooxygenase (COX): COX-2,cyclooxygenase-2; 100 nM,52.6 % inhibition
same,Inhibitory effects of cyclooxygenase (COX): COX-2,cyclooxygenase-2; 300 nM,50.5 % inhibition
